Results on seven compounds are retold here after patent publication US10414769B2, “5,8-dimethyl-9-phenyl-5,8-dihydro-6H-pyrazolo[3,4-h]quinazolin-2-yl)-(1H-pyrazol-3-yl)-amines as IGF-1R/IR inhibitors” (Boehringer Ingelheim International GmbH, priority 2015, dated 2019).

Common to all, as to format: biochemical
In test [1] the target is T1, EGFR (ErbB1) (Homo sapiens, UniProt P00533).
T1 construct: purchased Life Technologies PV 3872
Briefly: Z'-LYTE kinase selectivity assay EGFR. The source says:
(§1) In order to compare the kinase selectivity of compounds (I) according to the invention with known prior art compounds the commercially provided SelectScreen® Kinase Profiling Service (Z′-LYTE®) was used (Life Technologies GmbH, Darmstadt, Germany) to investigate the ability of the compounds to inhibit a number of different, representatively selected human kinases. Further details regarding this service are available on the Life Technologies website at
(§2) The Z′-LYTE® biochemical assay employs a fluorescence-based, coupled-enzyme format and is based on the differential sensitivity of phosphorylated and non-phosphorylated peptides to proteolytic cleavage. The peptide substrate is labeled with two fluorophores—one at each end—that make up a FRET pair.
(§3) In the primary reaction, the kinase transfers the gamma-phosphate of ATP to a single tyrosine, serine or threonine residue in a synthetic FRET-peptide. In the secondary reaction, a site-specific protease recognizes and cleaves non-phosphorylated FRET-peptides. Phosphorylation of FRET-peptides suppresses cleavage by the Development Reagent. Cleavage disrupts FRET between the donor (i.e., coumarin) and acceptor (i.e., fluorescein) fluorophores on the FRET-peptide, whereas uncleaved, phosphorylated FRET-peptides maintain FRET. A ratiometric method, which calculates the ratio (the Emission Ratio) of donor emission to acceptor emission after excitation of the donor fluorophore at 400 nm, is used to quantitate reaction progress, as shown in the equation below.
(§4) The Test Compounds are screened at 1 μM.
The 2×EGFR (ErbB1) (# PV 3872)/Tyr 04 (Z′-LYTE® Kinase Assay Kit—Tyrosine 4 Peptide, # PV 3193) mixture is prepared in 50 mM HEPES pH 7.5, 0.01% BRIJ-35, 10 mM MgCl2, 4 mM MnCl2, 1 mM EGTA, 2 mM DTT. The final 10 μL Kinase Reaction consists of 1.1-8 ng EGFR (ErbB1) and 2 μM Tyr 04 in 50 mM HEPES pH 7.5, 0.01% BRIJ-35, 10 mM MgCl2, 2 mM MnCl2, 1 mM EGTA, 1 mM DTT. After the 1 hour Kinase Reaction incubation, 5 μL of a 1:64 dilution of Development Reagent B is added.

In test [2] the target is T2, MAP2K1 (MEK1) (Homo sapiens, UniProt Q02750).
T2 construct: purchased Life Technologies PV 3303
T2 sequence (Q02750 whole entry): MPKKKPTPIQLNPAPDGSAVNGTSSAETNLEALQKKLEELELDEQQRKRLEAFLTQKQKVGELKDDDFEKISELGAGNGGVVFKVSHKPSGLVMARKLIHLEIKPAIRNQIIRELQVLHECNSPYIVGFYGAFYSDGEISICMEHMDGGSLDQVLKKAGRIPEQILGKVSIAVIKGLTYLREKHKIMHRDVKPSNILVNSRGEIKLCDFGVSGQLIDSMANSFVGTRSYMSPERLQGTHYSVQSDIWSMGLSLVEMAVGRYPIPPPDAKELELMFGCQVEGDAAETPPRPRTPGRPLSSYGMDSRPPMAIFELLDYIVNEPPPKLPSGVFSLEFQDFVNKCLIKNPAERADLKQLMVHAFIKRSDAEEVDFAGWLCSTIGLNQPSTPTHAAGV
Briefly: Z'-LYTE kinase selectivity assay MAP2K1.
From the text: as §1, §2, §3, §4
(§5) After the 1 hour Kinase Reaction incubation, 5 μL of a 1:1024 dilution of Development Reagent A is added.

The target of test [3] is T3, MAP3K8 (COT) (Homo sapiens, UniProt P41279).
T3 construct: purchased Life Technologies PV 4313
T3 sequence (P41279 whole entry): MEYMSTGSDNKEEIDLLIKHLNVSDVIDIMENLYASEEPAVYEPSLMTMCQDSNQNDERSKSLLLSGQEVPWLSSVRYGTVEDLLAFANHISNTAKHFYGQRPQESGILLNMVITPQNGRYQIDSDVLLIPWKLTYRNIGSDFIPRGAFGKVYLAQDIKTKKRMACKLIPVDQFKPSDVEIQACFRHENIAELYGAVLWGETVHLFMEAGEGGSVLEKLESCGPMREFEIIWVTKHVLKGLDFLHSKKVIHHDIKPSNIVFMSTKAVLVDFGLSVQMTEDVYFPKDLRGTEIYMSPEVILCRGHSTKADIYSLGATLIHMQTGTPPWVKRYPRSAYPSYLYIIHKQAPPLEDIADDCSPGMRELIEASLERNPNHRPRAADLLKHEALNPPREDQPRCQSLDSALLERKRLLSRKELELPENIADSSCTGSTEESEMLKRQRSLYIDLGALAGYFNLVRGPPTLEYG
Briefly: Z'-LYTE kinase selectivity assay MAP3K8.
From the text: as §1, §2, §3, §4, §5

The target of test [4] is T4, CAMK2D (CaMKII delta) (Homo sapiens, UniProt Q13557).
T4 construct: purchased Life Technologies PV 3373
Briefly: Z'-LYTE kinase selectivity assay CAMK2D.
From the text: as §1, §2, §3, §4
The 2×CAMK2D (CaMKII delta) (# PV 3373)/Ser/Thr 04 (Z′-LYTE® Kinase Assay Kit—Ser/Thr 4 Peptide, # PV 3177) mixture is prepared in 50 mM HEPES pH 7.5, 0.01% BRIJ-35, 10 mM MgCl2, 1 mM EGTA, 4 mM CaCl2), 800 U/mL Calmodulin, 0.02% NaN3. The final 10 μL Kinase Reaction consists of 0.08-0.74 ng CAMK2D (CaMKII delta) and 2 μM Ser/Thr 04 in 50 mM HEPES pH 7.5, 0.01% BRIJ-35, 10 mM MgCl2, 1 mM EGTA, 2 mM CaCl2), 400 U/mL Calmodulin, 0.01% NaN3. After the 1 hour Kinase Reaction incubation, 5 μL of a 1:1024 dilution of Development Reagent A is added.

Test [5] addresses T5, TBK1 (Homo sapiens, UniProt Q9UHD2).
T5 construct: purchased Life Technologies PV 3504
T5 sequence (Q9UHD2 1-729): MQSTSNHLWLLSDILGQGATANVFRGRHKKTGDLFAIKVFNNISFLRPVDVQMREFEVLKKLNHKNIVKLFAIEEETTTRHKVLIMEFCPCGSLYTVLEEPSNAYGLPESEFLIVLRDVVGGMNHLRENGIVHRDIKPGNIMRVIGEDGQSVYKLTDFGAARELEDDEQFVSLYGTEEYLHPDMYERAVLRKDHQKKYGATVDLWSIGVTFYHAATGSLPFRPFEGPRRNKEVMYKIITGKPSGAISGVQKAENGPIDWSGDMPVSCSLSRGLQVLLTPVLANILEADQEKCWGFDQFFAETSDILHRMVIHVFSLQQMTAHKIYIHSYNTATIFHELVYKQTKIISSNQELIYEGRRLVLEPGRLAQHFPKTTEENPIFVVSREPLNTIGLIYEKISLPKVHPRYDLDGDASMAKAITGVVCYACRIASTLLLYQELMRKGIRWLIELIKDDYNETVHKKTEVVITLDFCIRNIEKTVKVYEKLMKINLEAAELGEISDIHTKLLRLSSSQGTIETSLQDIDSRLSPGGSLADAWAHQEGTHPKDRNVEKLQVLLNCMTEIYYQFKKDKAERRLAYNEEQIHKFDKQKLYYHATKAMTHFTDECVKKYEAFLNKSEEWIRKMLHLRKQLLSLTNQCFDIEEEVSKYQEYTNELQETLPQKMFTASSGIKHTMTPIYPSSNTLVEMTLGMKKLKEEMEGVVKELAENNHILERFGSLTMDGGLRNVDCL
Briefly: Z'-LYTE kinase selectivity assay TBK1.
From the text: as §1, §2, §3, §4
The 2×TBK1 (# PV 3504)/Ser/Thr 05 (Z′-LYTE® Kinase Assay Kit—Ser/Thr 5 Peptide, # PV 3178) mixture is prepared in 50 mM HEPES pH 7.5, 0.01% BRIJ-35, 10 mM MgCl2, 1 mM EGTA. The final 10 μL Kinase Reaction consists of 0.7-9.72 ng TBK1 and 2 μM Ser/Thr 05 in 50 mM HEPES pH 7.5, 0.01% BRIJ-35, 10 mM MgCl2, 1 mM EGTA. After the 1 hour Kinase Reaction incubation, 5 μL of a 1:64 dilution of Development Reagent B is added.

T1 sequence (P00533 25-1210): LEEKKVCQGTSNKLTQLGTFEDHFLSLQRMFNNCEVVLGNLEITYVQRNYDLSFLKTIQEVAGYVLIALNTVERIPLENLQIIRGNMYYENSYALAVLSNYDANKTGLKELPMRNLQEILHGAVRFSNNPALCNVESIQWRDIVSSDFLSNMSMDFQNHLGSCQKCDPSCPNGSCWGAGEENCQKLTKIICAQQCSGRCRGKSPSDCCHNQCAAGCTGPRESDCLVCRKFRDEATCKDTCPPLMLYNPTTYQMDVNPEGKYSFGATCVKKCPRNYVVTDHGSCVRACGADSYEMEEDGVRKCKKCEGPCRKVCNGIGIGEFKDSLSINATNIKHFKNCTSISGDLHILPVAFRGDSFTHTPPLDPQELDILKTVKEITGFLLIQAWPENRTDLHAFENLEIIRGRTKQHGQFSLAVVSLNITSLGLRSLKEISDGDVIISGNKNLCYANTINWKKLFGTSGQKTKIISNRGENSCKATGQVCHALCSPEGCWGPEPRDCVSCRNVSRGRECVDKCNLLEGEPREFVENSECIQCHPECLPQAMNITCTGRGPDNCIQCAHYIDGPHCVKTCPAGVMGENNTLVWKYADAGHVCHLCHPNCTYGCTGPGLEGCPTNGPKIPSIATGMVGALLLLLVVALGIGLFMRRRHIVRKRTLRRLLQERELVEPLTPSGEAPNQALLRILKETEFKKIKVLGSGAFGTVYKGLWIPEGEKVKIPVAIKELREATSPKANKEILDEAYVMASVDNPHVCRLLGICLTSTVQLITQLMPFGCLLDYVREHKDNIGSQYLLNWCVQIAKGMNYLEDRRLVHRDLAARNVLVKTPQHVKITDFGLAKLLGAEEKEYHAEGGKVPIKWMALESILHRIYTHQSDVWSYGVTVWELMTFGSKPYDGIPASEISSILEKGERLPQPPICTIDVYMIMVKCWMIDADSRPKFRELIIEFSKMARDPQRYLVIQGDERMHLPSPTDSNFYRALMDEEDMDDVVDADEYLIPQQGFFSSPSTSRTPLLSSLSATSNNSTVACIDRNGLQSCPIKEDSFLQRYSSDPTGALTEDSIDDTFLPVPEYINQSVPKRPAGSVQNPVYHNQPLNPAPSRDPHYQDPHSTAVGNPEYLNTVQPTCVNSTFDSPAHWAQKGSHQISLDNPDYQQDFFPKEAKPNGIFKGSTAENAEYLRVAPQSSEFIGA

Take `CC(O)CN1CCN(CCn2ccc(Nc3ncc4c(n3)-c3c(nn(C)c3-c3ccccc3)C[C@H]4C)n2)CC1` (some centres unmarked) [Compound I-7]: the inhibition – broadly, the drop in the measured response relative to a control, in per cent – at 1 µM in test [1] was found to be 77%; in test [2], 40%; in test [3], 42%; in test [4], 64%; in test [5], 49%.

Turning to `C[C@@H]1Cc2nn(C)c(-c3ccccc3)c2-c2nc(Nc3ccn(CCN4CCN(C)CC4)n3)ncc21` [Compound I-1], the inhibition at 1 µM turned out to be 65% in test [1]; 34% in test [2]; 27% in test [3]; 53% in test [4]; 38% in test [5].

For `C[C@@H]1Cc2nn(C)c(-c3ccccc3)c2-c2nc(Nc3ccn(CCN4CCN(CC(C)(C)O)CC4)n3)ncc21` [Compound I-3], the inhibition at 1 µM stood at 72% in test [1]; 50% in test [2]; 45% in test [3]; 58% in test [4]; 51% in test [5].

As for `C[C@@H]1Cc2nn(C)c(-c3ccccc3)c2-c2nc(Nc3ccn(CCN4CCN(CC(=O)OC5CCOCC5)CC4)n3)ncc21` [Compound I-8], the inhibition at 1 µM in test [1] came out at 56%; in test [2] it was 48%; in test [3], 38%; in test [4] it was 40%; in test [5], 46%.

Consider `COCCN1CCN(CCn2ccc(Nc3ncc4c(n3)-c3c(nn(C)c3-c3ccccc3)C[C@H]4C)n2)CC1` [Compound I-11], for which the inhibition at 1 µM in test [1] was determined as 53%; in test [2], 39%; in test [3] it was 22%; in test [4], 38%; in test [5], 33%.

On to `C[C@@H]1Cc2nn(C)c(-c3ccccc3)c2-c2nc(Nc3ccn(CCN4CCOCC4)n3)ncc21` [Compound I-2], for which the inhibition at 1 µM in test [1] is 68%; in test [2], 58%; in test [3], 57%; in test [4] it was 47%; in test [5], 48%.

Consider `C[C@@H]1Cc2nn(C)c(-c3ccccc3)c2-c2nc(Nc3ccn(CCN4CCN(CC5CCCO5)CC4)n3)ncc21` (some centres unmarked) [Compound I-9], for which the inhibition at 1 µM was determined as 65% in test [1]; 36% in test [2]; 37% in test [3]; 69% in test [4]; 57% in test [5].
